Experimental data from patent publication US20050020534A1, “Method for treating diseases using HSP90-inhibiting agents in combination with antimetabolites” (Kosan Biosciences, Inc., priority 2003, published 2005).
Where two headings read alike, the source gives them in different places.

Key:
[1] = test system: DLD-1 cells (human colorectal cancer cells); assay: MTS cell viability assay, drug combination effect analysis (combination index) in DLD-1 cells; assay type: cell-based; conditions: combination of antimetabolite with 17-AAG, CI<1 synergism, CI=1 additivity, CI>1 antagonism; for CI values, 17-AAG Pre-Administration: 17-AAG 24 hours before antimetabolite (48 hours); for CI values, 17-AAG Post-Administration: antimetabolite 24 hours, then 17-AAG for 48 hours
Procedure: Human colon adenocarcinoma cell line, DLD-1, and human breast adenocarcinoma cell line, SKBr-3, were obtained from American Type Culture Collection (manassas, Va.). […] Other cytotoxic agents were purchased commercially from suppliers such as Sigma Chemical Co. (St. Louis, Mo.) and Sequoia Research Products (Oxford, UK). Cells were seeded in duplicate in 96-well microtiter plates at a density of 5,000 cells per well and allowed to attach overnight. […] Cell viability was determined using the MTS assay (Promega). […] Based on the IC50 values of each individual drug, combined drug treatment was designed at constant ratios of two drugs, i.e., equivalent to the ratio of their IC50. Two treatment schedules were used: In one schedule, the cells were exposed to 24 hours of 17-AAG or 17-DMAG. The drug was then added to the cells and incubated for 48 hours. […] Cell viability was determined by the MTS assay. Synergism, additivity or antagonism was determined by median effect analysis using the combination index (CI) calculated using Calcusyn (Biosoft, Cambridge, UK). The combination index is defined as follows: […] The quantities [Dx]1 and [Dx]2 represent the concentrations of the first and second drug, respectively, that when used alone provide a response of x % in the assay. […] The “enhancing” effect of two drugs can also be determined.

[2] = test system: SKBr cells (human breast cancer cells); assay: MTS cell viability assay, drug combination effect analysis (combination index) in SKBr-3 cells; assay type: cell-based; conditions: combination of antimetabolite with 17-AAG, CI<1 synergism, CI=1 additivity, CI>1 antagonism; for CI values, 17-AAG Pre-Administration: 17-AAG 24 hours before antimetabolite (48 hours)
Procedure: Human colon adenocarcinoma cell line, DLD-1, and human breast adenocarcinoma cell line, SKBr-3, were obtained from American Type Culture Collection (manassas, Va.). […] Other cytotoxic agents were purchased commercially from suppliers such as Sigma Chemical Co. (St. Louis, Mo.) and Sequoia Research Products (Oxford, UK). Cells were seeded in duplicate in 96-well microtiter plates at a density of 5,000 cells per well and allowed to attach overnight. […] Cell viability was determined using the MTS assay (Promega). […] Based on the IC50 values of each individual drug, combined drug treatment was designed at constant ratios of two drugs, i.e., equivalent to the ratio of their IC50. Two treatment schedules were used: In one schedule, the cells were exposed to 24 hours of 17-AAG or 17-DMAG. The drug was then added to the cells and incubated for 48 hours. […] Cell viability was determined by the MTS assay. Synergism, additivity or antagonism was determined by median effect analysis using the combination index (CI) calculated using Calcusyn (Biosoft, Cambridge, UK). The combination index is defined as follows: […] The “enhancing” effect of two drugs can also be determined.

[3] = clinical trials, sole therapeutic agent, cited from earlier work
[4] = test system: ErbB2 protein; assay: Expression of ErbB2 protein in SKBr3 cells; assay type: cell-based, human
[5] = test system: ErbB2 protein; assay: Expression of ErbB2 protein in glioma cells; assay type: cell-based

Q: Which results are given for O=c1[nH]cc(F)c(=O)[nH]1 [5-Fluorouracil, 5-fluorouracil]?
A: CI values, 17-AAG Pre-Administration [1]: 0.96 ± 0.16; CI values, 17-AAG Post-Administration [1]: 0.33 ± 0.08; CI values, 17-AAG Pre-Administration [2]: 0.65 ± 0.48

Q: For CN(Cc1cnc2nc(N)nc(N)c2n1)c1ccc(C(=O)N[C@@H](CCC(=O)O)C(=O)O)cc1 [Methotrexate, methotrexate], which “CI values, 17-AAG Pre-Administration” value [1] is on record?
A: 0.83 ± 0.14

Q: What about the “CI values, 17-AAG Post-Administration” value [1] of the same compound?
A: 0.71 ± 0.35

Q: Which results are given for Nc1ccn([C@@H]2O[C@H](CO)[C@@H](O)C2(F)F)c(=O)n1 [Gemcitabine, gemcitabine]?
A: CI values, 17-AAG Pre-Administration [1]: 0.45 ± 0.19; CI values, 17-AAG Post-Administration [1]: 0.77 ± 0.23; CI values, 17-AAG Pre-Administration [2]: 1.79 ± 0.54; CI values, 17-AAG Post-Administration ([2]; antimetabolite 24 hours, then 17-AAG for 48 hours): 0.86 ± 0.19

Q: Which MTD ([3]; daily ×5 schedule) does the source give for C=CCNC1=C2C[C@@H](C)C[C@H](OC)[C@H](O)[C@@H](C)/C=C(\C)[C@H](OC(N)=O)[C@@H](OC)/C=C\C=C(/C)C(=O)NC(=CC1=O)C2=O [17-AAG, 17-(allylamino)-17-desmethoxygeldanamycin] here?
A: about 40 mg/m^2

Q: What about the MTD ([3]; once-weekly regimen) of the same compound?
A: about 308 mg/m^2

Q: What about the MTD ([3]; twice-weekly regimen) of the same compound?
A: about 220 mg/m^2

Q: What about the “expression of ErbB2 protein” value [4] of the same compound?
A: reduced the expression

Q: What about the “expression of ErbB2 protein” value [5] of the same compound?
A: reduced the expression

Q: Which results are given for CO[C@H]1/C=C\C=C(/C)C(=O)NC2=CC(=O)C(NCCN(C)C)=C(C[C@@H](C)C[C@H](OC)[C@H](O)[C@@H](C)/C=C(\C)[C@@H]1OC(N)=O)C2=O [17-DMAG, 17-(2-dimethylaminoethyl)amino-17-desmethoxygeldanamycin]?
A: expression of ErbB2 protein [4]: reduced the expression; expression of ErbB2 protein [5]: reduced the expression
